Source: PubChem BioAssay AID488867 (Broad Institute, 2010)
Active and inactive are the calls of the source.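 How the source made its calls: active means a rising curve with AC50 no higher than ten times the top valid dose of that compound; inconclusive means flat curve between 30 and 70 percent, or failed fit; inactive means the rest.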

Assay: protection from cytokine-driven beta-cell apoptosis, dose response, JC-1 fluorescence, INS-1E, dry powder, set 2 (AID 488867)
Settings: INS-1E cytokine-induced apoptosis, JC-1 mitochondrial potential, 48 h

Structure (SMILES) | protection from cytokine-induced depolarization (at 26 µM (top of the series)) | protection from cytokine-induced depolarization (at 23.5 µM (top of the series))
COc1ccc(S(=O)(=O)N(C)C[C@@H]2Oc3c(NC(=O)Nc4ccc5c(c4)OCO5)cccc3C(=O)N([C@@H](C)CO)C[C@H]2C)cc1 | 4.22% (inactive) | –
CNC[C@@H]1Oc2c(NC(=O)Nc3cccc4ccccc34)cccc2C(=O)N([C@@H](C)CO)C[C@H]1C | 9.02% (inactive) | –
COc1ccc(S(=O)(=O)N(C)C[C@@H]2Oc3c(NC(=O)C4CCCCC4)cccc3C(=O)N([C@@H](C)CO)C[C@H]2C)cc1 | 2.77% (inactive) | –
C[C@@H]1CN([C@@H](C)CO)C(=O)c2cccc(NC(=O)Nc3cccc4ccccc34)c2O[C@H]1CN(C)S(=O)(=O)c1ccc(OC(F)(F)F)cc1 | -2.77% (inactive) | –
C[C@@H]1CN([C@@H](C)CO)C(=O)c2cccc(NC(=O)Nc3cccc4ccccc34)c2O[C@H]1CN(C)C(=O)Nc1ccccc1 | – | 2.8% (inactive)
COc1ccc(S(=O)(=O)N(C)C[C@@H]2Oc3c(NC(=O)C4CC4)cccc3C(=O)N([C@@H](C)CO)C[C@H]2C)cc1 | – | -7.4% (inactive)
COc1ccc(S(=O)(=O)N(C)C[C@@H]2Oc3c(NS(=O)(=O)c4ccc(Cl)cc4)cccc3C(=O)N([C@@H](C)CO)C[C@H]2C)cc1 | -6.3% (inactive) | –
C[C@@H]1CN([C@@H](C)CO)C(=O)c2cccc(NC(=O)Nc3cccc4ccccc34)c2O[C@H]1CN(C)C(=O)Nc1ccc(F)cc1 | 9.03% (inactive) | –
COc1ccc(S(=O)(=O)N(C)C[C@@H]2Oc3c(NC(=O)Nc4cccc5ccccc45)cccc3C(=O)N([C@@H](C)CO)C[C@H]2C)cc1Cl | -12% (inactive) | –
C[C@@H]1CN([C@@H](C)CO)C(=O)c2cccc(NC(=O)Nc3cccc4ccccc34)c2O[C@H]1CN(C)S(=O)(=O)c1cccs1 | 3.88% (inactive) | –
C[C@@H]1CN([C@H](C)CO)C(=O)c2cccc(NC(=O)Nc3ccccc3)c2O[C@H]1CN(C)S(=O)(=O)c1ccc(F)cc1 | 4.78% (inactive) | –
COc1ccc(S(=O)(=O)N(C)C[C@@H]2Oc3c(NC(=O)C4CCOCC4)cccc3C(=O)N([C@@H](C)CO)C[C@H]2C)cc1 | – | 3.35% (inactive)
C[C@@H]1CN([C@@H](C)CO)C(=O)c2cccc(NC(=O)Nc3ccc(F)cc3)c2O[C@H]1CN(C)S(=O)(=O)c1ccc(Cl)cc1 | 8.02% (inactive) | –
C[C@@H]1CN([C@@H](C)CO)C(=O)c2cccc(NC(=O)Nc3cccc4ccccc34)c2O[C@H]1CN(C)S(=O)(=O)c1ccccc1 | 8.02% (inactive) | –
COc1ccc(S(=O)(=O)N(C)C[C@@H]2Oc3c(NC(=O)NC4CCCCC4)cccc3C(=O)N([C@@H](C)CO)C[C@H]2C)cc1 | 7.46% (inactive) | –
COc1ccc(S(=O)(=O)N(C)C[C@@H]2Oc3c(NC(=O)c4cnccn4)cccc3C(=O)N([C@@H](C)CO)C[C@H]2C)cc1 | -9.35% (inactive) | –
C[C@@H]1CN([C@@H](C)CO)C(=O)c2cccc(NC(=O)Nc3cccc4ccccc34)c2O[C@H]1CN(C)S(=O)(=O)c1ccc2c(c1)oc(=O)n2C | -5.34% (inactive) | –
Cc1ccc(S(=O)(=O)N(C)C[C@@H]2Oc3c(NC(=O)Nc4cccc5ccccc45)cccc3C(=O)N([C@H](C)CO)C[C@H]2C)cc1 | – | 7.94% (inactive)
C[C@@H]1CN([C@H](C)CO)C(=O)c2cccc(NC(=O)Nc3ccccc3)c2O[C@H]1CN(C)S(=O)(=O)c1ccc(Cl)cc1 | 15.6% (inactive) | –
C[C@@H]1CN([C@@H](C)CO)C(=O)c2cccc(NS(=O)(=O)c3ccccc3)c2O[C@H]1CN(C)Cc1ccc(C(F)(F)F)cc1 | -2.49% (inactive) | –
C[C@@H]1CN([C@@H](C)CO)C(=O)c2cccc(NC(=O)Nc3ccccc3)c2O[C@H]1CN(C)S(=O)(=O)c1ccc(Cl)cc1 | 17.7% (inactive) | –
Cc1ccc(S(=O)(=O)N(C)C[C@@H]2Oc3c(NC(=O)Nc4ccccc4)cccc3C(=O)N([C@H](C)CO)C[C@H]2C)cc1 | 11.2% (inactive) | –
COc1ccc(S(=O)(=O)N(C)C[C@@H]2Oc3c(NC(=O)Nc4cccc5ccccc45)cccc3C(=O)N([C@@H](C)CO)C[C@H]2C)cc1F | -3.4% (inactive) | –
COc1ccc(S(=O)(=O)Nc2cccc3c2O[C@@H](CN(C)S(=O)(=O)c2ccc(OC)cc2)[C@H](C)CN([C@@H](C)CO)C3=O)cc1 | 3.9% (inactive) | –
C[C@@H]1CN([C@@H](C)CO)C(=O)c2cccc(NC(=O)Nc3cccc(Cl)c3Cl)c2O[C@H]1CN(C)S(=O)(=O)c1ccc2c(c1)OCCO2 | 8.05% (inactive) | –
COc1ccc(S(=O)(=O)N(C)C[C@@H]2Oc3c(NS(=O)(=O)c4ccc(F)cc4)cccc3C(=O)N([C@@H](C)CO)C[C@H]2C)cc1 | -3.26% (inactive) | –
C[C@H]1CN([C@@H](C)CO)C(=O)c2cccc(NC(=O)NC3CCCCC3)c2O[C@@H]1CN(C)S(C)(=O)=O | -1.29% (inactive) | –
